Measured values from ChEMBL document CHEMBL1201862, “PubChem BioAssay data set” (2004).
Where “and” joins values, the source holds several entries; their conditions need not be identical. Equal entries are not always repeated. Calls of active or inactive are those of the source.

Experiments:
Cytochrome P450 1A2 = target: T1, Cytochrome P450 1A2 (Homo sapiens, UniProt P05177);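 further: PubChem cytochrome P450 panel assay, CYP1A2 panel member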
T1 sequence (P05177 whole entry): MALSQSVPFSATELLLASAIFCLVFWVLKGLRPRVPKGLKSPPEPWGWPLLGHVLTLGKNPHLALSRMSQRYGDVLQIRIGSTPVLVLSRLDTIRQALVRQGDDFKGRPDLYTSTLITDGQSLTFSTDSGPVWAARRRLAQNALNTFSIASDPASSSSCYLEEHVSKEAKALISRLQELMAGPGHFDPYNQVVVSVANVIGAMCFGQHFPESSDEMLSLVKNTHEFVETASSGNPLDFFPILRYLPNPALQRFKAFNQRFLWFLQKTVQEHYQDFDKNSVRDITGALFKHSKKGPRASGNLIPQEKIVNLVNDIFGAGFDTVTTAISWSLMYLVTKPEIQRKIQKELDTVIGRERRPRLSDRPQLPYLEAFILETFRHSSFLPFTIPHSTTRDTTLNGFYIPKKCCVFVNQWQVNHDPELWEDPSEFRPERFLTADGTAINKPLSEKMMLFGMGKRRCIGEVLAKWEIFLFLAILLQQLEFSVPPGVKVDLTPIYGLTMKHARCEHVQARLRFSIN

Cytochrome P450 2C9 = Cytochrome P450 2C9 (Homo sapiens, UniProt P11712)
Sequence of Cytochrome P450 2C9 (P11712 whole entry): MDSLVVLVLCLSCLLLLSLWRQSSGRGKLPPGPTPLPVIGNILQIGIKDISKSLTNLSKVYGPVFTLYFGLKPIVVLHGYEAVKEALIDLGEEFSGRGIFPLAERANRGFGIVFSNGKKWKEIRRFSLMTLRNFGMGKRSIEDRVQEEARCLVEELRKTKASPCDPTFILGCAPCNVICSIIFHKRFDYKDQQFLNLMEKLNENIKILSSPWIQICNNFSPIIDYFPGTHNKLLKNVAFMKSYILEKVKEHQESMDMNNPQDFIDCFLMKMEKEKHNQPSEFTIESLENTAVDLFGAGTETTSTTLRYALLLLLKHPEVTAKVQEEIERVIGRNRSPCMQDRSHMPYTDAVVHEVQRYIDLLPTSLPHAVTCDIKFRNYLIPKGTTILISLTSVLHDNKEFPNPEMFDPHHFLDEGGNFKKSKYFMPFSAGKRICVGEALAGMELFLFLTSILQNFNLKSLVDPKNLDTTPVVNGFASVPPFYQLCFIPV

Cytochrome P450 3A4 = Cytochrome P450 3A4 (Homo sapiens, UniProt P08684);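 further: CYP3A4 tested as one member of a cytochrome P450 panel screen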
Sequence of Cytochrome P450 3A4 (P08684 whole entry): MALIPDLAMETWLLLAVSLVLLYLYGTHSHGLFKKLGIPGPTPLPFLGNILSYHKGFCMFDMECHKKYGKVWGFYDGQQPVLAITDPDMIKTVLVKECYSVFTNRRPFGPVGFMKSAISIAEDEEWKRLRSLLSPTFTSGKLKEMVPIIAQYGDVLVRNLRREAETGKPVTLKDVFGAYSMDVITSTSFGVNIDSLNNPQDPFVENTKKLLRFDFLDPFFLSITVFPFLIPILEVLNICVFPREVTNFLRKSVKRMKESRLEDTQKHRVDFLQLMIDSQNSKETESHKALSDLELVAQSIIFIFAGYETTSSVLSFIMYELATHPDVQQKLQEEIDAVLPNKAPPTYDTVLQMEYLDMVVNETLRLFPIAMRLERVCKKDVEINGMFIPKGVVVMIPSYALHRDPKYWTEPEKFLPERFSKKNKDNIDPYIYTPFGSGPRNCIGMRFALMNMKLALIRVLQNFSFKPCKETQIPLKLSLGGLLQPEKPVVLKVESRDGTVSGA

[1] = target: T2, Rac GTPase-activating protein 1 (Homo sapiens, UniProt Q9H0H5); assay: MgcRacGAP GTPase-activating activity inhibitors, confirmation, biochemical, ADP Hunter fluorescence, primary and confirmatory (AID 624330); type: functional
T2 sequence (Q9H0H5 whole entry): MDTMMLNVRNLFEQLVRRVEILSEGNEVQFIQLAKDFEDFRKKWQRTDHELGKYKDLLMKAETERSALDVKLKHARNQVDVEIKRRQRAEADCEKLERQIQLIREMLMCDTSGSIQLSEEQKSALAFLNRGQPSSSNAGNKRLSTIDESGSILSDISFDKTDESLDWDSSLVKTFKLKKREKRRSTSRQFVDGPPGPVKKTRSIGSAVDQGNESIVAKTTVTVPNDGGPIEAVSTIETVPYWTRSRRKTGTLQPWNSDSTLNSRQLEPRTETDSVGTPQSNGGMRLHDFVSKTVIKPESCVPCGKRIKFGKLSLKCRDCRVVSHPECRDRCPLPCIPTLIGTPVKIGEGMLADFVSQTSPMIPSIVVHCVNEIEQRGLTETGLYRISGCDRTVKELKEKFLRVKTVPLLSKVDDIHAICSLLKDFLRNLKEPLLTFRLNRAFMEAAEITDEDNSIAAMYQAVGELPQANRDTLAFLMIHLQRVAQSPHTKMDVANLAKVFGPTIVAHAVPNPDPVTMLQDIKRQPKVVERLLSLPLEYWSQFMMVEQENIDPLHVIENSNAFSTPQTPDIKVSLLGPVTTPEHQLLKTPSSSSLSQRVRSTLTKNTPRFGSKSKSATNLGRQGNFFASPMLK

Cytochrome P450 2C19 = Cytochrome P450 2C19 (Homo sapiens, UniProt P33261); assay: Cytochrome panel assay with activity outcomes. Panel member name: p450-cyp2c19 Compounds with AC50 equal or less than 10 uM are considered active; type: functional
Sequence of Cytochrome P450 2C19 (P33261 whole entry): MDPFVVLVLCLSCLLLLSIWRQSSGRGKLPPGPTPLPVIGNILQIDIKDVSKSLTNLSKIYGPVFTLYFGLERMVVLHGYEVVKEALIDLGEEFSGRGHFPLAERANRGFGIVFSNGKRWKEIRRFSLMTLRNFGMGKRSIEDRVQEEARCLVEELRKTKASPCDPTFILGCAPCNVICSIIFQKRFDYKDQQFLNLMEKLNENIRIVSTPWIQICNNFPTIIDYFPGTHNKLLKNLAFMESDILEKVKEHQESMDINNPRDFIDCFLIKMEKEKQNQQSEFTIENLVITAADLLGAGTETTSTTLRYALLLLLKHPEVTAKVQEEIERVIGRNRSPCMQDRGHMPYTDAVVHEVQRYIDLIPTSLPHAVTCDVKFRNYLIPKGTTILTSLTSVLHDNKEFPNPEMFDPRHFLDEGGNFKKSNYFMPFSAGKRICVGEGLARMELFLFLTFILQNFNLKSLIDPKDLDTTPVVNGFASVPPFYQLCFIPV

[2] = inhibitors of firefly luciferase expression or activity, dose response, H4 neuroglioma cells, luminescence (AID 1990); type: functional, cell-based
[3] = Luminescence Cell-Based Dose Response HTS to Identify Inhibitors of 5'UTR Stem-Loop Driven Prion Protein mRNA Translation in H4 Neuroglioblastoma Cells. [Related pubchem assays: 1827 (Project Summary), 1813 (Primary HTS)]; type: functional
[4] = inhibitors of SNCA 5'UTR-driven reporter translation, confirmation, H4 neuroglioma cells, luminescence (AID 1988); type: functional, cell-based
[5] = tested on: Streptococcus sp. 'group A'; assay: growth inhibition of control SK(-) GAS strain, dose response, counter-screen for streptokinase expression inhibitor project, luminescence, kanamycin, BacTiterGlo, confirmation (AID 1900); type: functional, organism-based
Streptokinase A = target: T3, Streptokinase A (Streptococcus pyogenes serotype M1, UniProt P10520); assay: S. pyogenes streptokinase expression inhibitors, potency, dose response, plasminogen activation absorbance, OD405 (AID 1914); type: functional, Streptococcus pyogenes M1 GAS;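 further: secreted streptokinase activity via plasminogen activation per viability signal from cell pellet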
T3 sequence (P10520 whole entry): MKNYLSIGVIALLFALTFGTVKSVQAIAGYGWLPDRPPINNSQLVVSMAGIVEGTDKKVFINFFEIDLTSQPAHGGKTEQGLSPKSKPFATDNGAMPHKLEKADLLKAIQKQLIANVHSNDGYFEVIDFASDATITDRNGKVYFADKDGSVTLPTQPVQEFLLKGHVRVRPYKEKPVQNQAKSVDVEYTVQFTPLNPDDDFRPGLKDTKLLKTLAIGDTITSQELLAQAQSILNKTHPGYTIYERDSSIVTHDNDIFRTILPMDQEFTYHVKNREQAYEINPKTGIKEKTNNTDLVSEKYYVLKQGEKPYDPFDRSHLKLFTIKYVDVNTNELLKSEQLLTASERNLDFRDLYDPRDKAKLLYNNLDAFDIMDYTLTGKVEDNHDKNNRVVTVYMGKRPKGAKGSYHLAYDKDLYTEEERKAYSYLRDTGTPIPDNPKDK

Streptococcus = assay: Group A Streptococcus viability loss, dose response, counter-screen for streptokinase expression inhibitor project, luminescence, BacTiterGlo (AID 1915); type: functional, organism-based;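 further: potency for reduction of bacterial viability or growth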
H4 = assay: Luminescence Cell-Based Dose Response HTS to Identify Activators of 5'UTR Stem-Loop Driven Prion Protein mRNA Translation in H4 Neuroglioblastoma Cells. [Related pubchem assays: 1829 (Project Summary), 1814 (Primary HTS)]; type: functional; settings: Homo sapiens

NCCCCCCNS(=O)(=O)c1cccc2ccccc12
AC50 (Cytochrome P450 1A2): 25.1 µM (inconclusive)
AC50 (Cytochrome P450 2C9): 0.2 µM (inconclusive)

c1ccc([C@H]2CNCc3ccccc32)cc1
AC50 (Cytochrome P450 3A4): 15.8 µM (inconclusive)

COc1ccc(NC(=O)N2CC[C@@]3(CCCN(C(=O)c4cccc(F)c4)C3)C2)cc1
AC50 (Cytochrome P450 1A2): 25.1 µM (inconclusive)
AC50 (Cytochrome P450 3A4): 15.8 µM (inconclusive)

CCCCN(C)CCNC(=O)CSCc1ccc(C)cc1
IC50 [1]: 220 µM (active)

COc1cc(/C=C2/C(=N)N3OC(C)=CC3=NC2=O)ccc1OCCOc1ccc(C)cc1
AC50 (Cytochrome P450 2C19; read-out: AC50): 4.47 µM (inconclusive)
AC50 (Cytochrome P450 3A4): 11.2 µM (inconclusive)

CN(C)c1ccc(-c2cc(-n3ccnc3)ncn2)cc1
AC50 (Cytochrome P450 2C9): 0.794 µM (inconclusive)

CN(Cc1ccccc1)C(=O)CC(c1ccccc1)c1cc(Cl)ccc1O (centres undefined)
AC50 (Cytochrome P450 1A2): 25.1 µM (inconclusive)

C=C1C(=O)O[C@@H]2[C@@H]1CC/C(C)=C\CC[C@@]1(C)O[C@H]21
AC50 (Cytochrome P450 3A4): 20 µM (inconclusive) and 12.6 µM (inconclusive)

CO[C@@H]1/C=C\O[C@]2(C)Oc3c(C)c(O)c4c(O)c(c(CN5CCN(C)CC5)c(O)c4c3C2=O)NC(=O)/C(C)=C\C=C[C@@H](C)[C@@H](O)[C@H](C)[C@@H](O)[C@H](C)[C@H](OC(C)=O)[C@@H]1C
AC50 (Cytochrome P450 2C9): 6.31 µM (inconclusive)

COc1cccc(CN2CCN(Cc3cccc(F)c3)CC2)c1
IC50 [1]: 86 µM (active)

CCOC(=O)c1oc2cc(OC(C)=O)ccc2c(=O)c1-c1ccc(OC)c(OC)c1
EC50 [2]: > 120 µM (not active)
EC50 [3]: > 120 µM (not active)
EC50 [4]: > 120 µM (not active)

O=C(Nc1cccc(OC(=O)c2cccnc2)c1)c1cccnc1
AC50 (Cytochrome P450 2C9): 28.2 µM (inconclusive)

Oc1nc(N2CCCCCC2)nc(N2CCCCCC2)n1
AC50 (Cytochrome P450 2C19; read-out: AC50): 5.62 µM (inconclusive)
AC50 (Cytochrome P450 1A2): 22.4 µM (inconclusive)

CSc1nncc(-c2ccc(F)c(F)c2)n1
AC50 (Cytochrome P450 2C9): 28.2 µM (inconclusive)

CCc1ccc(/C=C2/C(=O)N(c3ccccc3)C(=S)N2CC(=O)OC)s1
EC50 [2]: > 120 µM (not active)
EC50 [3]: 11.2 µM (active)
EC50 [4]: 14.4 µM (active)

O=C(COc1ccccc1)Nc1ccc(-c2nnc(-c3ccco3)o2)cc1
AC50 (Cytochrome P450 2C19; read-out: AC50): 10 µM (inconclusive)
AC50 (Cytochrome P450 2C9): 1.78 µM (inconclusive)

O=C(Nc1ccccc1)c1cc([N+](=O)[O-])ccc1NC1CCCCC1
EC50 [2]: 16.4 µM (active)
EC50 [3]: > 120 µM (not active)
EC50 [4]: > 120 µM (not active)

NS(=O)(=O)c1nc(S(=O)(=O)O)c2[nH]cnc2n1
AC50 (Cytochrome P450 2C19): inconclusive
AC50 (Cytochrome P450 1A2): 5.01 µM (inconclusive)

CC(C)CN(Cc1cc(=O)oc2cc(-c3ccccc3)c(O)cc12)CC(C)C
EC50 [2]: 12.1 µM (active)
EC50 [5]: 5.29 µM (active)
EC50 [3]: > 120 µM (not active)
EC50 [4]: > 120 µM (not active)
EC50 (Streptokinase A): 2.43 µM (active)
EC50 (Streptococcus): 14.3 µM (active)

CCC/C=C(\CCC)C(NP(=O)(c1ccccc1)c1ccccc1)c1ccc(-c2ccccc2)cc1 (centres undefined)
AC50 (Cytochrome P450 1A2): 2.51 µM (inconclusive)

COc1ccccc1/C=C(/C(=O)OCC(=O)Nc1ccc(N(C)C)cc1)c1ccccc1
IC50 [1]: 61 µM (active)

CCOc1ccc(OCC)c(-c2c(=O)n(OCc3ccc(C(C)(C)C)cc3)c3ccccc3[n+]2[O-])c1
AC50 (Cytochrome P450 3A4): 12.6 µM (inconclusive)

COc1cc(OC)cc(C(=O)NC(=S)Nc2ccc(Cl)c(C(=O)O)c2)c1
AC50 (Cytochrome P450 2C9): 12.6 µM (inconclusive)

O=C1C2CCCN2C(c2ccccc2F)N1c1ccc(Cl)cc1 (centres undefined)
AC50 (Cytochrome P450 1A2): 2 µM (inconclusive)
AC50 (Cytochrome P450 3A4): 14.1 µM (inconclusive)
AC50 (Cytochrome P450 2C9): 39.8 µM (inconclusive)

CN(C)S(=O)(=O)c1ccc(Cl)c(NC(=O)COC(=O)CN2C(=O)C3CCCCC3C2=O)c1 (centres undefined)
EC50 [2]: > 120 µM (not active)
EC50 [3]: > 120 µM (not active)
EC50 [4]: > 120 µM (not active)

COc1ccc(C2CC(c3ccc4ccccc4c3)=NN2C(=O)COC(=O)C2CCC(=O)N2)cc1 (centres undefined)
EC50 (H4): 66.5 µM (active)

O=[N+]([O-])c1ccc2c(c1)N=C1O[C@H](c3c[nH]c4ccc(COc5ccccc5)cc34)C(O)=C1N2
AC50 (Cytochrome P450 2C19; read-out: AC50): 3.16 µM (inconclusive)
AC50 (Cytochrome P450 3A4): 3.16 µM (inconclusive)

Fc1ccc(C(OCCN2CCN(C/C=C\c3ccccc3)CC2)c2ccc(F)cc2)cc1
AC50 (Cytochrome P450 1A2): 31.6 µM (inconclusive)
AC50 (Cytochrome P450 3A4): 15.8 µM (inconclusive)

Fc1ccccc1Nc1nnc(S)s1
IC50 [1]: 54.3 µM (active)

ClC1(Cl)CC1Cn1c(C2CC2)nc2ccccc21 (centres undefined)
EC50 [2]: > 120 µM (not active)
EC50 [3]: > 120 µM (not active)
EC50 [4]: > 120 µM (not active)

COc1cccc(Cn2c(=O)c(CCc3ccccc3)nc3cnc(N(C)C)nc32)c1
AC50 (Cytochrome P450 3A4): 2.51 µM (inconclusive)

COc1ccccc1N1CCN(Cc2cccc(Br)c2)CC1
IC50 [1]: 130 µM (active)

COc1ccc(/C=C(/C(=O)Nc2ccccc2C(=O)NC(C)C)c2ccccc2)cc1
EC50 [2]: 13.7 µM (active)
EC50 [3]: 83.5 µM (active)
EC50 [4]: 30.2 µM (active)

COc1ccc(NC2CCCN(C(=O)c3ccccc3C(F)(F)F)C2)cc1 (centres undefined)
IC50 [1]: 75.2 µM (active)

CCOC(=O)c1c(C)[nH]c(C)c1C(=O)CSc1nc2ccccc2c(=O)n1-c1ccc(C)cc1
EC50 [2]: 13.4 µM (active)
EC50 [3]: > 120 µM (not active)
EC50 [4]: > 120 µM (not active)

CCN=C(S)Nc1cc(Cl)ccc1Oc1ccccc1
EC50 [2]: > 120 µM (not active)
EC50 [3]: > 120 µM (not active)
EC50 [4]: > 120 µM (not active)

CC(=O)NN1C(=O)/C(=C\c2ccc(O)cc2)SC1=S
IC50 [1]: 121 µM (active)

Cc1c(NC(=O)C23CC4CC(CC(C)(C4)C2)C3)c(=O)n(-c2ccccc2)n1C
AC50 (Cytochrome P450 2C19): inconclusive
AC50 (Cytochrome P450 3A4): 31.6 µM (inconclusive)

COc1ccc(C(=O)N/C(=C/c2cccs2)C(=O)NCCCn2ccnc2)cc1OC
AC50 (Cytochrome P450 2C19; read-out: AC50): 8.91 µM (inconclusive)
AC50 (Cytochrome P450 2C9): 5.01 µM (inconclusive)

COc1cc(N=Nc2ccc(C(=O)N(C)C)cc2)c(C)cc1N
IC50 [1]: 52.9 µM (active)

COc1ccc(C(=O)/C=C/c2ccc(O)cc2)c2c1CC(O)C(C)(C)O2 (centres undefined)
IC50 [1]: 56.9 µM (active)

COc1ccc(N2CCN(C(=O)c3ccc(C[S+]([O-])c4cccc(Cl)c4)o3)CC2)cc1 (centres undefined)
IC50 [1]: 326 µM (active)

Cc1cc(O)c(C)c(O)c1/C=N/NC(=O)c1cccnc1
IC50 [1]: 101 µM (active)

COc1cc(/C(C)=N/NC(=O)C(O)(c2ccccc2)c2ccccc2)ccc1O
IC50 [1]: 104 µM (active)

O=[N+]([O-])c1ccc2nc(N3CCNCC3)ccc2c1 [6-NITROQUIPAZINE]
AC50 (Cytochrome P450 2C19): inconclusive
AC50 (Cytochrome P450 3A4): 10 µM (inconclusive)
